The text below walks through data of patent US8597646B2, “Methods and compositons featuring TGF-beta antagonists for the treatment of marfan syndrome and associated disorders” (The Johns Hopkins University, priority 2005, dated 2013).

What all share (assay type): in vivo, mouse
In assay [1] the test system is mdx mice. Kind of assay: Long-term losartan in mdx mice: fibrosis and centrally located nuclei in diaphragm and gastrocnemius. As for the experimental part: (§1) Mice were continued on oral therapy for 6 months and sacrificed. […] Age-matched wild-type and mdx mice (placebo-treated) served as a control group. After 6 months of treatment, forelimb and hindlimb grip strength was assessed using an automated grip strength meter (Columbus Instruments, Columbus, Ohio). The experiments for forelimb and hindlimb grip strength testing were conducted at different days allowing for a minimum recovery period of 10 days. Total peak force (in Newtons) was determined by an electronic strain gauge as previously described and corrected for body weight (Wagner, K. R., et al. (2002) Ann Neurol 52, 832-6). Five measurements within 2 minutes were taken from each animal. The three highest measurements for each animal were averaged to give the strength score. The degree of fatigue was calculated by comparing the first two pulls to the last two pulls with the decrement between pulls 1+2 and pulls 4+5 providing a measure of fatigue. Similarly, functional measurements were performed in 6 month old fibrillin-1 deficient mice (Fbn1^mgR) (Pereira, L. et al. (1997) Nat Genet. 17, 218-22) after 5 months of treatment.
For morphometric analyses, skeletal muscle was flash frozen in cooled isopentane and mounted in Tragacanth (Sigma Aldrich, USA). Subsequently, 10 μm sections were stained with hematoxylin and eosin. Muscle fibers were counted in a defined area (9 mm^2) of the tibialis anterior muscle of 10-day-old wild-type (n=3) and Fbn1C1039G/C1039G mice (n=6) and fiber diameter was determined by measuring the shortest fiber axis within cross-sections of the tibialis anterior muscle, counting a total of 850-1500 fibers. The cross sectional area of undamaged and regenerating myofibers of the tibialis anterior muscle from wild-type and Fbn1^C1039G/+ mice was expressed as a distribution of the percentage of the total number of myofibers analyzed (850-1500) (Horsley, V. et al (2003) Cell 113, 483-94). Sections of skeletal muscle were taken along the same anatomical region of the mid-belly of the tibialis anterior muscle. The number of c-met, M-cadherin- and myogeninpositive cells in 50 fields of the tibialis anterior muscle mid-belly area was scored using the x40 objective. At least six animals per genotype were scored and all analyses were performed by investigators blinded to genotype and treatment group. All images were taken using an Eclipse E400 microscope (Nikon Inc.) and cross-sectional area measurements were determined using IPLAB software (Scanalytics, Fairfax, Va.). Neonatal myosin-positive fibers after cardiotoxin challenge were quantified by counting 900-1240 fibers per toxin-challenged muscle (n=4). For quantification of fibrotic tissue formation in toxin challenged mice (n=4), immunofluorescent staining for vimentin was performed. Five sections throughout the entire tibialis anterior muscle were analyzed at low magnification and vimentin positive areas were calculated as a percentage of the total muscle area using the NIH Scion image software, public domain. Similarly, van-Gieson and vimentin stained sections were used to delineate the percentage of fibrotic versus total muscle area in diaphragm and gastrocnemius of long-term losartan-treated, placebo-treated mdx and wild-type mice (n=6 each group) using the NIH Scion software. For evaluation of percent centrally located nuclei a total of 1100-1300 muscle fibers per diaphragm of each mouse (n=6, each group) and a total of 1900-2200 muscle fibers per gastrocnemius of each mouse (n=6, each group) were calculated.

For assay [2], the system named is mdx mice. Description: Muscle regeneration after cardiotoxin injury in 9-month old mdx mice. As for the experimental part:
All mouse protocols were approved by the Animal Care and Use Committee of Johns Hopkins University School of Medicine. Creation of the mouse line harboring the Fbn1 mutation C1039G has been previously described (Judge, D. P. et al. (2004) J Clin Invest 114, 172-81). All analyses were performed in male mice after back-crossing (>9 times) this mutation into the C57BL/6J background, allowing valid comparisons between litters. Mice were sacrificed with an inhalation overdose of halothane (Sigma-Aldrich) or by cervical dislocation. For muscle regeneration experiments in Fbn1^C1039G/+ mice, 100 μl cardiotoxin (10 μM Naja nigricollis; Calbiochem, La Jolla, Calif.) (Goetsch, S. C. et al. (2003) Physiol Genomics 14, 261-71; Cohn, R. D. et al. (2002) Cell 110, 639-48) was injected into the tibialis anterior muscle of wild-type and Fbn1^C1039G/+ mice either treated or untreated with TGFβ neutralizing antibody (n=6, each group) at 4 months of age. Subsequently, mice were analyzed at 4, 7, 18 and 28 days after injury. For regeneration experiments in mdx mice we injected 150 μl of cardiotoxin into the tibialis anterior muscle of wild-type and mdx mice, either treated or untreated with TGFβ neutralizing antibody (n=6 each group) at 9 months of age and analyzed skeletal muscle at 4 days and 18 days after injection.
Mice were continued on oral therapy for 6 months and sacrificed. […] Age-matched wild-type and mdx mice (placebo-treated) served as a control group. After 6 months of treatment, forelimb and hindlimb grip strength was assessed using an automated grip strength meter (Columbus Instruments, Columbus, Ohio). […] Total peak force (in Newtons) was determined by an electronic strain gauge as previously described and corrected for body weight (Wagner, K. R., et al. (2002) Ann Neurol 52, 832-6). […] The degree of fatigue was calculated by comparing the first two pulls to the last two pulls with the decrement between pulls 1+2 and pulls 4+5 providing a measure of fatigue. […]

Assay [3] deals with mdx mice. Kind of assay: Forelimb and hindlimb grip strength and fatigue in mdx mice. As for the experimental part:
as §1

In a further assay the test system is Fbn1C1039G/+ mice. Kind of assay: Prenatal treatment with losartan and propranolol, aorta of Fbn1C1039G/+ mice. The settings on record: prenatal start. The text has this:
Treatment of the mothers continued throughout lactation and was maintained in the pups after weaning. Mice were killed at 10 months of age. […] The average aortic wall thickness for untreated wild-type animals was smaller than that in placebo-treated Fbn1C1039G/+ mice (P<0.0001) but was indistinguishable from that in losartan-treated Fbn1C1039G/+ mice (P=0.24, FIG. 20E).

Setting [4] is: 10 months of treatment, monopotassium salt.

The structures appear in SMILES notation. “Also recorded” adds a separate entry of the source.

`CCCCc1nc(Cl)c(CO)n1Cc1ccc(-c2ccccc2-c2nnn[nH]2)cc1.[K]` [losartan, 2-butyl-4-chloro-1-[p-(o-1H-tetrazol-5-ylphenyl)benzyl]imidazole-5-methanol monopotassium salt]: in the assay on mdx mice [1] (6 months of losartan), the “Muscle fibers containing centrally located nuclei, diaphragm and gastrocnemius, in words” value was “increased percentage”. In the assay with mdx mice [1] (6 months of losartan, mdx 25±5, wild-type 2±0.5), the “Centrally located nuclei, gastrocnemius” value is 36%±+6. The “Fibrotic area, diaphragm” value in the assay on mdx mice [1] (6 months of losartan, mdx 32±5, wild-type 4±1) is 18%±4. For the same molecule, the “Percentage of centrally located nuclei, diaphragm” value with mdx mice [1] (6 months of losartan, mdx 35±5, wild-type 2±0.5) is given as 48%±6. Besides, in the assay with mdx mice [1] (6 months of losartan, mdx 75±6.4, wild-type 4±2), the “Fibrosis, gastrocnemius” value is 89%±5.8. The “Myopathic disease progression / steady-state architecture in mdx mice” value in the assay with mdx mice [1] (long-term losartan, 9 month-old mdx mice, monopotassium salt) is “significant attenuation of disease progression; also recorded: improved steady-state architecture; also recorded: attenuates myopathic disease progression”. Besides, the “Muscle regeneration in mdx mice, in words” value in the assay with mdx mice [2] (4 days after cardiotoxin, neonatal myosin staining) is “active regeneration comparable to that seen in wild-type mice”. The “Fibrosis (vimentin) after injury, in words” value with mdx mice [2] (18 days after cardiotoxin, monopotassium salt) was “reduced fibrosis; also recorded: marked reduction in fibrosis”. In addition, in the assay on mdx mice [2] (four days after injury, untreated mdx 268±12, wild-type 689±19), the “Neonatal myosin positive fibers” value was 513±14 neonatal myosin positive fibers per tibialis anterior muscle. Further, in the assay with mdx mice [3] (6 months of losartan, untreated mdx 1.25±0.15), the “Forelimb grip strength (peak force), male” value amounted to 1.64±0.29 N. Further, the “Forelimb grip strength (peak force), female” value with mdx mice [3] (6 months of losartan, untreated mdx 1.32±0.12) was found to be 1.41±0.15 N. The “Hindlimb grip strength (peak force), female” value with mdx mice [3] (6 months of losartan, untreated mdx 1.39±0.14) was 1.79±0.14 N. Further, the “Hindlimb grip strength (peak force), male” value in the assay on mdx mice [3] (6 months of losartan, untreated mdx 1.45±0.19) is listed as 1.89±0.23 N. The “Muscle fatigue, forelimb test, female” value with mdx mice [3] (6 months of losartan, untreated mdx 34.7±5.7) is reported as 15.2±6%. In the assay with mdx mice [3] (6 months of losartan, untreated mdx 36.3±6.5), the “Muscle fatigue, forelimb test, male” value is recorded as 16.3±5%. Moreover, the “Muscle fatigue, hindlimb test, female” value in the assay on mdx mice [3] (6 months of losartan, untreated mdx 37.6±6) amounted to 17.1±4%. Moreover, the “Muscle fatigue, hindlimb test, male” value in the assay with mdx mice [3] (6 months of losartan, untreated mdx 39.5±6) is 16.2%±5. Besides, the “Muscle fatigue in response to repetitive challenge, in words” value with mdx mice [3] (6 months of treatment) is “significantly less muscle fatigue”. Further, in the assay with mdx mice [3] (6 months of treatment, male and female), the “Grip strength versus untreated mdx mice, in words” value is “increased forelimb and hindlimb grip strength”. In addition, the Aortic dilatation entry in the assay on Fbn1C1039G/+ mice (10 months) is recorded as “indistinguishable from wild-type littermates”. Further, in the assay on Fbn1C1039G/+ mice (setting [4]), the “Aortic wall architecture score” value is on record as “normalized; also recorded: improvement” and the “Average aortic wall thickness” value is on record as “indistinguishable; also recorded: full normalization of wall thickness”.
